Measured values taken from patent publication US12213485B2, “Synergistic methods of using benzoxaborole compounds and preservative gases as an antimicrobial for crops” (AGROFRESH INC., priority 2016, dated 2025).

Legend:
[1] = test system: Aspergillus brasiliensis (ASPEBR); test: In vitro fungal growth on inoculated agar plates, benzoxaborole and CO2 chamber treatment; assay type: cell-based
Excerpt: (§1) The following experiments were used to determine synergy between benzoxaborole Compounds A, B, and/or C and preservative gases, such as carbon dioxide (CO2) and sulfur dioxide (SO2). Specific rates or any other unique conditions are noted within the corresponding results tables. Each experiment comprised an air-tight 36 liter (L) chamber (Fisher Scientific, P/N: 08-642-23C), fitted with a bulkhead septum port (Swagelok, P/N: SS-400-61, Solon, OH) used for treatment delivery, as well as for monitoring (using needle extraction) carbon dioxide (CO2), sulfur dioxide (SO2), oxygen (O2) or other headspace samples. A variable speed fan (Thermaltake, Mobile Fan II, P/N: A1888, Taipei City, Taiwan) set to low was also used to circulate the headspace atmosphere.
(§2) In vitro and in vivo experiments were performed concurrently in triple replicates (i.e., triplicate) unless otherwise noted. For in vitro experiments, a single 6-well microtiter plate or three, 10-cm petri plates each containing half strength Potato Dextrose Agar were prepared. Each well or plate was inoculated with 1 microliter (μL) of 1×10^5 spores/ml of the appropriate pathogenic spore suspension (e.g., Botrytis cinerea, BOTRCI; Penicillium expansum, PENIEX; Mucor piriformis, MUCOPI; Fusarium sambucinum FUSASA; or Aspergillus brasiliensis, ASPEBR). The inoculated microtiter or petri plates were then sealed with a breathable film (AeraSeal; P/N: B-100, Excel Scientific, Victorville, CA).
(§3) For treatment, the inoculated agar plates and clamshells containing fruits (e.g., strawberries and grapes) were placed inside a 36 L experimental chamber unit, which was then sealed prior to commencement of compound treatments. The chamber remained sealed throughout the duration of the experiment except for addition of treatment to the chamber, and post-treatment ventilation.
(§4) Benzoxaborole Compound A or Compound B was dissolved in acetone and dispensed onto a 60 mm Whatman #1 filter paper disk using a pipette. The acetone was permitted to evaporate for five minutes before the disk was placed on a watch glass in each chamber.
(§5) A 12% CO2 headspace treatment was then established in the chamber by permitting 10 grams (g) of crushed dry ice placed in a weigh boat in the chamber to evaporate in the sealed chamber. However, the bulkhead port of the chamber was loosened to permit the release of internal pressure. Optionally, a fan was used during the initial hours of treatment (i.e., up to about 6 hours of treatment) to ensure uniform treatment exposure of fruits and plates.
(§6) Untreated controls and CO2 treated chambers contained an acetone-treated disk with similar evaporation for five minutes. CO2 and O2 levels in the chamber were monitored using a handheld gas detector (Dansensor Checkpoint II; P/N 600111, Ringsted, Denmark). Temperature and relative humidity were also monitored within the chamber using data loggers (Onset HOBO; P/N U12-013, Bourne, MA).
(§7) The chamber for all in vitro and in vivo experiments was held at room temperature (i.e., from about 21° C. to about 23° C.) typically for about 3.5 days (i.e., about 84 hours) of treatment exposure. Chambers were then vented. After an additional 2-3 days with the chamber at room temperature, post-treatment radial growth (in mm) of each in vitro pathogen (see Examples 1-7, Tables 1-7) was measured on the inoculated plates using electronic calipers (Mitutoyo, P/N: CD-6-CX, Aurora, IL). In addition, the point of inoculation on fruits was assessed for indication of in vivo disease incidence (e.g., yes or no) and severity of disease incidence (see Examples 8-16, Tables 8-16). Disease severity was rated on a scale ranging from 0 to 4, where “0” indicated no disease severity, “1” indicated minimal disease severity, “2” indicated medium disease severity, “3” indicated high disease severity, and “4” indicated exceptionally high disease severity. […]

[2] = test system: Botrytis cinerea (BOTRCI); test: as above; assay type: cell-based
Excerpt: as §1, §2, §3, §4, §5, §6, §7

[3] = test system: Fusarium sambucinum (FUSASA); test: as above; assay type: cell-based
Excerpt: as §1, §2, §3, §4, §5, §6, §7

[4] = test system: Mucor piriformis (MUCOPI); test: as above; assay type: cell-based; conditions: Table 3, 12% CO2 alone, evaluated 2 days after treatment, 6-well microtiter plate, fan first 6 hours, >90% R.H.
Excerpt: as §1, §2, §3, §4, §5, §6, §7

[5] = test system: Penicillium expansum (PENIEX); test: as above; assay type: cell-based
Excerpt: as §1, §2, §3, §4, §5, §6, §7

[6] = test system: Botrytis cinerea (BOTRCI) on strawberries; test: In vivo disease severity on wound-inoculated strawberries, benzoxaborole and CO2 chamber treatment
Excerpt: as §1
(§8) For in vivo experiments, eight strawberry fruits per repetition were surface sterilized with a 70% ethanol solution. After sterilization, the strawberries were rinsed twice with deionized water. Each strawberry fruit was wounded using a T15 screwdriver tip to a uniform depth of eight mm (8 mm). Each fruit wound was inoculated with 20 μL of 1×10^5 spores/ml pathogen spore suspension of B. cinerea or M. piriformis. The strawberries were then placed with the stem facing downwards inside a 1-pound strawberry clamshell.
as §3, §4, §5, §6, §7

[7] = test system: Mucor piriformis (MUCOPI) on strawberries; test: as above; conditions: Table 10, 12% CO2 alone, evaluated 2 days after treatment, fan first 6 hours, >90% R.H.
Excerpt: as §1, §8, §3, §4, §5, §6, §7

[8] = test system: Botrytis cinerea (BOTRCI) on table grapes; test: In vivo disease severity on wound-inoculated table grapes, benzoxaborole and CO2 chamber treatment; conditions: Table 15, 12% CO2 alone, evaluated 1 day after treatment, fan continuous
Excerpt: as §1
(§9) Similarly, table grape fruits were also tested in vivo. More specifically, 16-20 table grapes per repetition were washed and inoculated with pathogens (as described above for the strawberries). However, an ethanol-sterilized push pin, rather than a T15 screwdriver, was used to wound the stem-end of the grapes. The grapes were inoculated in the wound, and then arranged inside a 1-pint clamshell.
as §3, §4, §5, §6, §7

[9] = test system: Penicillium expansum (PENIEX) on table grapes; test: as above; conditions: Table 16, 12% CO2 alone, evaluated 1 day after treatment, fan continuous
Excerpt: as §1, §9, §3, §4, §5, §6, §7

[10] = Table 5, 12% CO2 alone, evaluated 2 days after treatment, 6-well plate, fan first 6 hours, >90% R.H.
[11] = Table 1, 12% CO2 alone, evaluated 2 days after treatment completion, 6-well microtiter plate, 4 replicates, fan first 6 hours
[12] = Table 4, 12% CO2 alone, evaluated 2 days after treatment completion, 6-well microtiter plate, fan first 6 hours
[13] = Table 5, compound 0.14 mg/L + 12% CO2, Colby equation E=x+y−x*y/100
[14] = Table 5, compound 0.14 mg/L + 12% CO2, evaluated 2 days after treatment, 6-well plate, fan first 6 hours, >90% R.H.
[15] = Table 5, compound alone 0.14 mg/L, evaluated 2 days after treatment, 6-well plate, fan first 6 hours, >90% R.H.

## O=C=O [CO2, carbon dioxide]
[1]; [10]
  Growth (diameter, mm) 12% CO2: 26.2 mm
[2]; [11]
  Growth (diameter, mm) 12% CO2: 28.0 mm
[2]; Table 3, 12% CO2 alone, evaluated 2 days after treatment, 6-well microtiter plate, fan first 6 hours, >90% R.H.
  Growth (diameter, mm) 12% CO2: 30.9 mm
[2]; [12]
  Growth (diameter, mm) 12% CO2: 33.4 mm
[2]; [10]
  Growth (diameter, mm) 12% CO2: 35.0 mm
[2]; Table 6, 12% CO2 alone, evaluated 3 days after treatment, 10 cm petri plates, fan continuous
  Growth (diameter, mm) 12% CO2: 78.9 mm
[3]; [10]
  Growth (diameter, mm) 12% CO2: 33.9 mm
[4]
  Growth (diameter, mm) 12% CO2: 35.0 mm
[5]; [11]
  Growth (diameter, mm) 12% CO2: 18.6 mm
[5]; Table 2, 12% CO2 alone, evaluated 2 days after treatment, 6-well microtiter plate, fan first 6 hours, >90% R.H.
  Growth (diameter, mm) 12% CO2: 21.3 mm
[5]; [12]
  Growth (diameter, mm) 12% CO2: 21.2 mm
[5]; [10]
  Growth (diameter, mm) 12% CO2: 19.9 mm
[5]; Table 7, 12% CO2 alone, evaluated 3 days after treatment, 10 cm Petri plates, fan continuous
  Growth (diameter, mm) 12% CO2: 25.8 mm
[6]; Table 8, 12% CO2 alone, evaluated 2 days after treatment, 4 replicates, fan first 6 hours, >90% R.H.
  Growth (Severity, 0 to 4) 12% CO2: 3.7
[6]; Table 9, 12% CO2 alone, evaluated 3 days after treatment, fan first 6 hours, >90% R.H.
  Growth (Severity, 0 to 4) 12% CO2: 3.5
[6]; Table 11, 12% CO2 alone, evaluated 2 days after treatment, fan first 6 hours, >90% R.H.
  Growth (Severity, 0 to 4) 12% CO2: 2.7
[6]; Table 12, 12% CO2 alone, evaluated 2 days after treatment, fan first 6 hours, >90% R.H.
  Growth (Severity, 0 to 4) 12% CO2: 3.4
[6]; Table 13, 12% CO2 alone, evaluated 3 days after treatment, fan run continuously
  Growth (Severity, 0 to 4) 12% CO2: 3.2
[6]; Table 14, 12% CO2 alone, evaluated 3 days after treatment, fan continuous
  Growth (Severity, 0 to 4) 12% CO2: 3.9
[7]
  Growth (Severity, 0 to 4) 12% CO2: 3.0
[8]
  Growth (Severity, 0 to 4) 12% CO2: 1.4
[9]
  Growth (Severity, 0 to 4) 12% CO2: 1.9

## Fc1ccc2c(c1)COB2OCCOB1OCc2cc(F)ccc21 [Compound B]
[1]; [13]
  Colby Calculation: 112.0
[1]; [14]
  Growth (diameter, mm) Cmpd + 12% CO2: 0.0 mm
[1]; [15]
  Growth (diameter, mm) Cmpd: 3.6 mm
[2]; [13]
  Colby Calculation: 103.4
[2]; [14]
  Growth (diameter, mm) Cmpd + 12% CO2: 2.7 mm
[2]; [15]
  Growth (diameter, mm) Cmpd: 3.5 mm
[3]; [13]
  Colby Calculation: 100.4
[3]; [14]
  Growth (diameter, mm) Cmpd + 12% CO2: 3.4 mm
[3]; [15]
  Growth (diameter, mm) Cmpd: 3.6 mm
[5]; [13]
  Colby Calculation: 102.4
[5]; [14]
  Growth (diameter, mm) Cmpd + 12% CO2: 6.4 mm
[5]; [15]
  Growth (diameter, mm) Cmpd: 7.7 mm
[6]; Table 11, compound 0.14 mg/L + 12% CO2, Colby equation E=x+y−x*y/100
  Colby Calculation: 105.0
[6]; Table 11, compound 0.14 mg/L + 12% CO2, evaluated 2 days after treatment, fan first 6 hours, >90% R.H.
  Growth (Severity, 0 to 4) Cmpd + 12% CO2: 0.5
[6]; Table 11, compound alone 0.14 mg/L, evaluated 2 days after treatment, fan first 6 hours, >90% R.H.
  Growth (Severity, 0 to 4) Cmpd: 0.9
[6]; Table 12, compound 0.14 mg/L + 12% CO2, Colby equation E=x+y−x*y/100
  Colby Calculation: 100.9
[6]; Table 12, compound 0.14 mg/L + 12% CO2, evaluated 2 days after treatment, fan first 6 hours, >90% R.H.
  Growth (Severity, 0 to 4) Cmpd + 12% CO2: 0.3
[6]; Table 12, compound alone 0.14 mg/L, evaluated 2 days after treatment, fan first 6 hours, >90% R.H.
  Growth (Severity, 0 to 4) Cmpd: 0.4
